Our source for the IC50 and Emax values is patent US12071453B2, “Neuroactive steroids, compositions, and uses thereof” (Sage Therapeutics, Inc., priority 2013, dated 2024).

The target in experiment [1] is [35S]-TBPS binding in rat brain cortical membranes. The experiment is described as follows: Steroid inhibition of [35S]-TBPS binding, rat brain cortical membranes. The conditions noted are these: 3 nM [35S]-TBPS, in the presence of 5 μM GABA, read-out: 35S-TBPS Radioligand Displacement (IC50). The procedure, abridged:
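Washed P2 cortical membranes from Sprague-Dawley rats were incubated 90 min at room temperature with 3 nM [35S]-TBPS, 5 μM GABA and test steroid (0.5% DMSO) in 200 mM NaCl/50 mM Na–K phosphate, pH 7.4. Nonspecific binding was defined with 2 μM unlabeled TBPS, and samples were filtered and counted. IC50 and Imax came from non-linear fits, reported as mean ± SEM.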

The target of experiment [2] is T1, GABAA receptors composed of the α4β3δ subunits (GABRA4/GABRB3/GABRD) (Homo sapiens, UniProt P28472+P48169).
T1 construct: expressed in transfected cells; host or cells: Xenopus laevis oocytes, injected (ratio 5:1:5)
T1 sequence (P48169 36-554): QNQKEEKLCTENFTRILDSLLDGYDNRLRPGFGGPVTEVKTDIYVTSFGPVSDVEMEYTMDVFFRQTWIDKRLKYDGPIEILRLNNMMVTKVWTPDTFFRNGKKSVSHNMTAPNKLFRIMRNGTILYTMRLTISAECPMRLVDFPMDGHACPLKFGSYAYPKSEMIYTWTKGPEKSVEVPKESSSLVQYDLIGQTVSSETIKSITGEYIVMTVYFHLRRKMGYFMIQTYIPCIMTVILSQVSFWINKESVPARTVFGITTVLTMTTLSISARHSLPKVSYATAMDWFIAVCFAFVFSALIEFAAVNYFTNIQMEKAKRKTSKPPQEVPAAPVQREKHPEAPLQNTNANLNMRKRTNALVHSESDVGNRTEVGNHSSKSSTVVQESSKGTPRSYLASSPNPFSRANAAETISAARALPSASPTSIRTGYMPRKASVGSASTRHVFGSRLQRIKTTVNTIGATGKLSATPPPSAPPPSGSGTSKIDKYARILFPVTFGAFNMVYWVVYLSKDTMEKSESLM
T1 sequence (P28472 26-473): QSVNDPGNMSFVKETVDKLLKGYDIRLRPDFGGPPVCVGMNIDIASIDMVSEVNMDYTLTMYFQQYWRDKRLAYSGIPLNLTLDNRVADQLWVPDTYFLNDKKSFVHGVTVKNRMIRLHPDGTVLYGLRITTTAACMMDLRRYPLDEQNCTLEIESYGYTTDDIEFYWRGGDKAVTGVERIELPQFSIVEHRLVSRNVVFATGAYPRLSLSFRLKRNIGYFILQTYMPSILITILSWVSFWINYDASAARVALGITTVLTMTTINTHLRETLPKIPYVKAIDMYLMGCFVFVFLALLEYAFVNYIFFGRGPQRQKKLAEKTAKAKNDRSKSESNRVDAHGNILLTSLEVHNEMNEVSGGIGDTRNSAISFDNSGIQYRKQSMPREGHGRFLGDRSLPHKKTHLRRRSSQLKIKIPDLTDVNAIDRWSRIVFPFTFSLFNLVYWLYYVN
T1 sequence (O14764 25-452 partner): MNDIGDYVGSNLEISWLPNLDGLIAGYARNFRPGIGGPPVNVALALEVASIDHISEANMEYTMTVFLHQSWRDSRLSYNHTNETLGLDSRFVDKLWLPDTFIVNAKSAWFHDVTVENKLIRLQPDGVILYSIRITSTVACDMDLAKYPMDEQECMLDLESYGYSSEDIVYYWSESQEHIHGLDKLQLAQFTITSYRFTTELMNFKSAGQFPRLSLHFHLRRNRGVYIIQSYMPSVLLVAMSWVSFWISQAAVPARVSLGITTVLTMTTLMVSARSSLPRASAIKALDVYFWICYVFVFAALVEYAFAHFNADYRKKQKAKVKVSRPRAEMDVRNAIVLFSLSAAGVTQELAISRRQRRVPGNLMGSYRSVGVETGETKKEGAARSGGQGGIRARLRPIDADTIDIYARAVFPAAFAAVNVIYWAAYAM
The experiment is described as follows: Two Electrode Voltage Clamp (TEVC), GABA receptor potentiation in Xenopus laevis oocytes, α4β3δ. It is filed as cell-based. The conditions noted are these: 10 μM compound, 3 μM GABA, read-out: GABA (α4β3δ) % efficacy at 10 μM. As for the experimental part:
(§1) The Two Electrode Voltage Clamp (TEVC) technique was used to investigate the effects of compounds at a concentration of 10 μM on GABAA receptors composed of the α1β2γ2 or α4β3δ subunits expressed in oocytes from the Xenopus laevis. GABA-evoked currents were recorded from oocytes that expressed the GABA receptors and the modulatory effects of the test items on these currents were investigated.
(§2) Ovaries were harvested from Xenopus laevis females that had been deeply anesthetized by cooling at 4° C. and immersion in Tricaine methanesulfonate (MS-222 at a concentration of 150 mg/L) in sodium bicarbonate (300 mg/L). Once anesthetized the animal was decapitated and pithed following the rules of animal rights from the Geneva canton. A small piece of ovary was isolated for immediate preparation while the remaining part was placed at 4° C. in a sterile Barth solution containing in mM NaCl 88, KCl 1, NaHCO3 2.4, HEPES 10, MgSO4·7H2O 0.82, Ca(NO3)2·4H2O 0.33, CaCl2·6H2O 0.41, at pH 7.4, and supplemented with 20 μg/ml of kanamycin, 100 unit/ml penicillin and 100 μg/ml streptomycin. All recordings were performed at 18° C. and cells were super-fused with medium containing in mM: NaCl 82.5, KCl 2.5, HEPES 5, CaCl2·2H2O, ·6H2O 1, pH 7.4.
(§3) Plasmids containing the RNAs of the human GABRA1/GABRB2/GABRG2 and GABRA4/GABRB3/GABRD genes were injected into oocytes using a proprietary automated injection device (Hogg el al., J. Neurosci. Methods, (2008) 169: 65-75). These genes encode for the α1β2γ2 and α4β3δ GABAA subunits respectively. Receptor expression was assessed using electrophysiology at least two days later. The ratio of RNA injection for α1β2γ2 was 1:1:1 and for α4β3δ was 5:1:5. Electrophysiological recordings were made using an automated process equipped with standard TEVC and data were captured and analyzed using a proprietary data acquisition and analysis software running under Matlab (Mathworks Inc.). The membrane potential of the oocytes was maintained at −80 mV throughout the experiments. To explore the effects of proprietary compounds, currents were evoked by applying 10 μM (α1β2γ2) or 3 μM (α4β3δ) GABA for 30 s. These concentrations approximated the EC50 concentration of GABA at each receptor subtype. Oocytes were then re-exposed to GABA again for 30 s. 15 s after beginning the GABA application, test article was co-applied at a concentration of 10 μM for 15 s. Potentiation of the peak current was assessed. Data was filtered at 10 Hz, captured at 100 Hz and analyzed using proprietary data acquisition and analysis software running under Matlab (Mathworks Inc.). For statistical analysis values were computed either with Excel (Microsoft) or Matlab (mathworks Inc.). To obtain mean measurements with standard deviations, all experiments were carried out using at least three cells.
In general terms: Two-electrode voltage clamp is typically applied to oocytes expressing channels or transporters.

Experiment [3] deals with T2, GABAA receptors composed of the α1β2γ2 subunits (GABRA1/GABRB2/GABRG2) (Homo sapiens, UniProt P14867+P47870).
T2 construct: expressed in transfected cells; host or cells: Xenopus laevis oocytes, injected (ratio 1:1:1)
T2 sequence (P14867 28-456): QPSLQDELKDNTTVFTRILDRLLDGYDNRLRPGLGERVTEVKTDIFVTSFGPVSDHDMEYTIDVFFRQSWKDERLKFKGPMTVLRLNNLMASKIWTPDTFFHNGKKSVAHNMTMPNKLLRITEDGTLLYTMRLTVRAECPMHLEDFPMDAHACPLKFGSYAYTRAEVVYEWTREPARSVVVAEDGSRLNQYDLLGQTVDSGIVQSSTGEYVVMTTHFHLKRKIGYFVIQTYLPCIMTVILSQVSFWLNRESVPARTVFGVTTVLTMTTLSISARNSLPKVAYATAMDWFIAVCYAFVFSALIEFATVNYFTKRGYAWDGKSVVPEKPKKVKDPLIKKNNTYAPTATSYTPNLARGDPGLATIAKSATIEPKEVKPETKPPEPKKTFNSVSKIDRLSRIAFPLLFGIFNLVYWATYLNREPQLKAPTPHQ
T2 sequence (P47870 26-512): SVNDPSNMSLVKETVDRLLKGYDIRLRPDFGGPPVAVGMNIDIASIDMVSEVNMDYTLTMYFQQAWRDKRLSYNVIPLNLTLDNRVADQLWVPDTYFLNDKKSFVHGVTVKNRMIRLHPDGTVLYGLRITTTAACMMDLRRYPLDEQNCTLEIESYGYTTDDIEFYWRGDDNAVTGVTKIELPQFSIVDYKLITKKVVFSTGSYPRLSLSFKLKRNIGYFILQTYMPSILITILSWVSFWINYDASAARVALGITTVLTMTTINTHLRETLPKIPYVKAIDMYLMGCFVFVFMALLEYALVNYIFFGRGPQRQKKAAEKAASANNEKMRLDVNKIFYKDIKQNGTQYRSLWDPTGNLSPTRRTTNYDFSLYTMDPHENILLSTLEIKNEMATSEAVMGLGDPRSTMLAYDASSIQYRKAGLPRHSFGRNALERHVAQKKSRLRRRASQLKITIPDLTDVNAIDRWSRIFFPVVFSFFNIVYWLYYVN
T2 sequence (P18507 40-475 partner): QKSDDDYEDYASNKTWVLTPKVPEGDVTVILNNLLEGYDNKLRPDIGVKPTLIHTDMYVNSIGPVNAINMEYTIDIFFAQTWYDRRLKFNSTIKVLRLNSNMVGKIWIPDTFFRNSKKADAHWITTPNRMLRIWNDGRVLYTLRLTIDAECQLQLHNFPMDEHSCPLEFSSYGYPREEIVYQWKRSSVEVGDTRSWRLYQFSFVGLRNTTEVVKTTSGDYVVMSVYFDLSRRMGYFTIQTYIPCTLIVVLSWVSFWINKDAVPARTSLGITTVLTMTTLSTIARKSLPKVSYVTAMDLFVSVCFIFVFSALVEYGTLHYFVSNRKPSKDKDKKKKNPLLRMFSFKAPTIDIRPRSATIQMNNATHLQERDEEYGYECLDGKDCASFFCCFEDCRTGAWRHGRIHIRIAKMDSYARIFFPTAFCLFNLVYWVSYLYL
The experiment is described as follows: Two Electrode Voltage Clamp (TEVC), GABA receptor potentiation in Xenopus laevis oocytes, α1β2γ2. It is filed as cell-based. Conditions: 10 μM compound, 10 μM GABA, read-out: GABA (α1β2γ2) % efficacy at 10 μM. As for the experimental part: as §1, §2, §3

In general, IC50 refers to the concentration needed to halve the response being measured. With `COC[C@]12CC[C@@](C)(O)C[C@@H]1CC[C@H]1[C@@H]3CC[C@H](C(=O)Cn4nnc5ccc(OC)c(OC)c54)[C@@]3(C)CC[C@@H]12` [Compound 62], in experiment [1], the IC50 was 10 to 50 nM. In addition, the Emax at 10 µM in experiment [2] fell in the range of 1000 to 1500%; in experiment [3], 500 to 1000%.

As for `COC[C@]12CC[C@@](C)(O)C[C@@H]1CC[C@H]1[C@@H]3CC[C@H](C(=O)Cn4nc5ccc(OC)c(OC)c5n4)[C@@]3(C)CC[C@@H]12` [Compound 64], in experiment [1], the half-maximal inhibitory concentration (IC50) lay within 10 to 50 nM. The Emax at 10 µM is 500 to 1000% in experiment [2] and 1000 to 1500% in experiment [3].

For the compound `COC[C@]12CC[C@@](C)(O)C[C@@H]1CC[C@H]1[C@@H]3CC[C@H](C(=O)Cn4nnc5c(OC)cc(OC)cc54)[C@@]3(C)CC[C@@H]12` [Compound 66], the 50% inhibitory concentration (IC50) in experiment [1] fell in the range of 10 to 50 nM. For the same compound, the Emax at 10 µM fell in the range of 1000 to 1500% in experiment [2] and 50 to 500% in experiment [3].

With `COC[C@]12CC[C@@](C)(O)C[C@@H]1CC[C@H]1[C@@H]3CC[C@H](C(=O)Cn4ncc5ncc(Br)cc54)[C@@]3(C)CC[C@@H]12` [Compound 67], the half-inhibitory concentration (IC50) in experiment [1] was in the range of 10 to 50 nM. For the same compound, the Emax at 10 µM in experiment [2] is 500 to 1000%; in experiment [3] it was 50 to 500%.

With `COC[C@]12CC[C@@](C)(O)C[C@@H]1CC[C@H]1[C@@H]3CC[C@H](C(=O)Cn4cc5ncc(Cl)cc5n4)[C@@]3(C)CC[C@@H]12` [Compound 68], in experiment [1], the IC50 was in the range of 10 to 50 nM. Also, the Emax at 10 µM in experiment [2] lay within 1000 to 1500%; in experiment [3], 50 to 500%.

`COC[C@]12CC[C@@](C)(O)C[C@@H]1CC[C@H]1[C@@H]3CC[C@H](C(=O)Cn4ncc5ncc(Cl)cc54)[C@@]3(C)CC[C@@H]12` [Compound 69]: the IC50 in experiment [1] was in the range of 10 to 50 nM. Further, the Emax at 10 µM in experiment [2] was in the range of 1000 to 1500%; in experiment [3], 500 to 1000%.

For `CCOC[C@]12CC[C@@](C)(O)C[C@@H]1CC[C@H]1[C@@H]3CC[C@H](C(=O)Cn4nnc5ccc(Cl)cc54)[C@@]3(C)CC[C@@H]12` [Compound 70], in experiment [1], the half-maximal inhibitory concentration (IC50) is 50 to 100 nM. The Emax at 10 µM in experiment [2] lay in the range of 1000 to 1500%; in experiment [3] it was 50 to 500%.

Take `CCOC[C@]12CC[C@@](C)(O)C[C@@H]1CC[C@H]1[C@@H]3CC[C@H](C(=O)Cn4nnc5cc(Cl)ccc54)[C@@]3(C)CC[C@@H]12` [Compound 71]: the IC50 in experiment [1] was 10 to 50 nM. The Emax at 10 µM in experiment [2] lay in the range of 1000 to 1500%; in experiment [3], 50 to 500%.

For the compound `CCOC[C@]12CC[C@@](C)(O)C[C@@H]1CC[C@H]1[C@@H]3CC[C@H](C(=O)Cn4nc5ccc(Cl)cc5n4)[C@@]3(C)CC[C@@H]12` [Compound 72], in experiment [1], the 50% inhibitory concentration (IC50) fell in the range of 10 to 50 nM. In addition, the Emax at 10 µM lay in the range of 1000 to 1500% in experiment [2] and 50 to 500% in experiment [3].

In the case of `COC[C@]12CC[C@@](C)(O)C[C@H]1CC[C@H]1[C@@H]3CC[C@H](C(=O)Cn4nc5ccc(F)c(F)c5n4)[C@@]3(C)CC[C@@H]12` [Compound 79], the IC50 in experiment [1] is less than 10 nM. Further, the Emax at 10 µM was in the range of 1000 to 1500% in experiment [2] and 500 to 1000% in experiment [3].

Regarding `COC[C@]12CC[C@@](C)(O)C[C@@H]1CC[C@H]1[C@@H]3CC[C@H](C(=O)Cn4nnc5cc(F)c(F)cc54)[C@@]3(C)CC[C@@H]12` [Compound 98], the IC50 in experiment [1] was 50 to 100 nM. In addition, the Emax at 10 µM fell in the range of 1000 to 1500% in experiment [2] and 500 to 1000% in experiment [3].

As for `COC[C@]12CC[C@@](C)(O)C[C@@H]1CC[C@H]1[C@@H]3CC[C@H](C(=O)Cn4ncc5nccnc54)[C@@]3(C)CC[C@@H]12` [Compound 102], in experiment [1], the IC50 fell in the range of 100 to 500 nM. Also, the Emax at 10 µM in experiment [2] and in experiment [3] was 50 to 500% each time.

For `COC[C@]12CC[C@@](C)(O)C[C@@H]1CC[C@H]1[C@@H]3CC[C@H](C(=O)Cn4nc5ccc(OC(F)(F)F)cc5n4)[C@@]3(C)CC[C@@H]12` [Compound 104], in experiment [1], the concentration for half-maximal inhibition (IC50) lay within 50 to 100 nM. In addition, the Emax at 10 µM in experiment [2] lay within 1000 to 1500%; in experiment [3] it was 50 to 500%.

As to `COC[C@]12CC[C@@](C)(O)C[C@@H]1CC[C@H]1[C@@H]3CC[C@H](C(=O)Cn4ncc5cc(Cl)ccc54)[C@@]3(C)CC[C@@H]12` [Compound 105], in experiment [1], the concentration for half-maximal inhibition (IC50) was greater than 500 nM. For the same compound, the Emax at 10 µM in experiment [2] was in the range of 1000 to 1500%; in experiment [3], 50 to 500%.
